Columns and labels:
A549 [1] = assay: Antiproliferative activity against human A549 cells after 72 hrs by CCK-8 reagent based assay; type: functional, cell-based; conditions: A549, 72 h
MGC-803 = assay: Antiproliferative activity against human MGC803 cells after 72 hrs by CCK-8 reagent based assay; type: functional, cell-based; conditions: MGC-803, 72 h
HepG2 = assay: Antiproliferative activity against human HepG2 cells after 72 hrs by CCK-8 reagent based assay; type: functional, cell-based; conditions: HepG2, 72 h
HCT-116 = assay: Antiproliferative activity against human HCT116 cells after 72 hrs by CCK-8 reagent based assay; type: functional, cell-based; conditions: HCT-116, 72 h
A549 [2] = assay: Induction of apoptosis in human A549 cells assessed as viable cells at 4 umol/L after 48 hrs by Alexa Fluor 488 Annexin/propidium iodide staining-based flow cytometry (reference value: 92.79%); type: functional; conditions: A549, 48 h, read-out: Activity
A549 [3] = assay: Induction of apoptosis in human A549 cells assessed as early apoptotic cells at 4 umol/L after 48 hrs by Alexa Fluor 488 Annexin/propidium iodide staining-based flow cytometry (reference value: 3.41%); type: functional
A549 [4] = assay: Induction of apoptosis in human A549 cells assessed as late apoptotic cells at 4 umol/L after 48 hrs by Alexa Fluor 488 Annexin/propidium iodide staining-based flow cytometry (reference value: 2.93%); type: functional
A549 [5] = assay: Induction of apoptosis in human A549 cells assessed as necrotic cells at 4 umol/L after 48 hrs by Alexa Fluor 488 Annexin/propidium iodide staining-based flow cytometry (reference value: 0.87%); type: functional
A549 [6] = assay: Induction of apoptosis in human A549 cells assessed as viable cells at 8 umol/L after 48 hrs by Alexa Fluor 488 Annexin/propidium iodide staining-based flow cytometry (reference value: 92.79%); type: functional; conditions: A549, 48 h, read-out: Activity
A549 [7] = assay: Induction of apoptosis in human A549 cells assessed as early apoptotic cells at 8 umol/L after 48 hrs by Alexa Fluor 488 Annexin/propidium iodide staining-based flow cytometry (reference value: 3.41%); type: functional
A549 [8] = assay: Induction of apoptosis in human A549 cells assessed as late apoptotic cells at 8 umol/L after 48 hrs by Alexa Fluor 488 Annexin/propidium iodide staining-based flow cytometry (reference value: 2.93%); type: functional
A549 [9] = assay: Induction of apoptosis in human A549 cells assessed as necrotic cells at 8 umol/L after 48 hrs by Alexa Fluor 488 Annexin/propidium iodide staining-based flow cytometry (reference value: 0.87%); type: functional
A549 [10] = assay: Cell cycle arrest in human A549 cells assessed as accumulation at G0/G1 phase at 2 umol/L after 48 hrs by propidium iodide staining-based flow cytometry (reference value: 75.77%); type: functional
A549 [11] = assay: Cell cycle arrest in human A549 cells assessed as accumulation at S phase at 2 umol/L after 48 hrs by propidium iodide staining-based flow cytometry (reference value: 15.13%); type: functional
A549 [12] = assay: Cell cycle arrest in human A549 cells assessed as accumulation at G2/M phase at 2 umol/L after 48 hrs by propidium iodide staining-based flow cytometry (reference value: 9.1%); type: functional; conditions: at 2 µM
A549 [13] = assay: Cell cycle arrest in human A549 cells assessed as accumulation at G0/G1 phase at 16 umol/L after 48 hrs by propidium iodide staining-based flow cytometry (reference value: 75.77%); type: functional
A549 [14] = assay: Cell cycle arrest in human A549 cells assessed as accumulation at S phase at 16 umol/L after 48 hrs by propidium iodide staining-based flow cytometry (reference value: 15.13%); type: functional
A549 [15] = assay: Cell cycle arrest in human A549 cells assessed as accumulation at G2/M phase at 16 umol/L after 48 hrs by propidium iodide staining-based flow cytometry (reference value: 9.1%); type: functional; conditions: at 16 µM
Histone deacetylase 1 = Histone deacetylase 1 (Homo sapiens, UniProt Q13547); assay: Inhibition of human recombinant HDAC1 using Fluor de Lys as substrate by fluorometric assay
Histone deacetylase 2 = Histone deacetylase 2 (Homo sapiens, UniProt Q92769); assay: Inhibition of human recombinant HDAC2 using Fluor de Lys green as substrate by fluorometric assay
[16] = target: T1, Protein deacetylase HDAC6 (Homo sapiens, UniProt Q9UBN7); assay: Inhibition of human recombinant HDAC6 using Fluor de Lys as substrate after 60 mins by fluorometric assay
T1 sequence (Q9UBN7 whole entry): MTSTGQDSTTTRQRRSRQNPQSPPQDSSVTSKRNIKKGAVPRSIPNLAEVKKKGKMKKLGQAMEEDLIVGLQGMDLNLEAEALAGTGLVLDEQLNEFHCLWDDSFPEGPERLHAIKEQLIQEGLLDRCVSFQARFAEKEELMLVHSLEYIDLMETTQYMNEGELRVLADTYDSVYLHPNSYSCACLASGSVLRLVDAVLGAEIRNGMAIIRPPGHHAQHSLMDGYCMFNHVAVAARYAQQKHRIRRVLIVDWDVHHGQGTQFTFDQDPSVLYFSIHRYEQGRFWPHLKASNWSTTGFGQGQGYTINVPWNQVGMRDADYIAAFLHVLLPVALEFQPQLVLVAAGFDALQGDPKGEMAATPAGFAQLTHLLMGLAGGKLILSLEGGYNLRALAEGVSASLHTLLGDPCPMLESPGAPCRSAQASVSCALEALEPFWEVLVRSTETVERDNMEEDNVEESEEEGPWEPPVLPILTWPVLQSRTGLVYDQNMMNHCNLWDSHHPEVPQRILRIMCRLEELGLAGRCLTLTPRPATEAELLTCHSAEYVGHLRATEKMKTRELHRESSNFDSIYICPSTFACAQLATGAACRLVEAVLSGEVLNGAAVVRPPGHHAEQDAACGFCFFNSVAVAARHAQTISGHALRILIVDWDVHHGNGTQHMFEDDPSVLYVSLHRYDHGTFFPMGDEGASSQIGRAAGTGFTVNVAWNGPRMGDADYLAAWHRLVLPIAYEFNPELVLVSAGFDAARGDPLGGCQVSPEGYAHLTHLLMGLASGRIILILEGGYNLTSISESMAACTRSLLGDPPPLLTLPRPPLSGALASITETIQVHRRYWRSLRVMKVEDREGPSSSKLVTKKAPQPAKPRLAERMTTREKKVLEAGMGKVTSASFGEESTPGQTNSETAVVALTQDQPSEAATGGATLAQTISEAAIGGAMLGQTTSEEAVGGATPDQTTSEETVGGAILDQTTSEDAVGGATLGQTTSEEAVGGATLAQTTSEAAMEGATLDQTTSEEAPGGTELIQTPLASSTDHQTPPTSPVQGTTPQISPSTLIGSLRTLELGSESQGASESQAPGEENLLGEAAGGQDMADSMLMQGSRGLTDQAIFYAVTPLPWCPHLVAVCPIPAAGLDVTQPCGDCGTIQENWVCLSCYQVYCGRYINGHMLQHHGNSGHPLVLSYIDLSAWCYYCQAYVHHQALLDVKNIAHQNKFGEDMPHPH

A549 [17] = assay: Inhibition of colony formation in human A549 cells after 7 days by crystal violet staining based assay; type: functional, cell-based
A549 [18] = assay: Induction of apoptosis in human A549 cells after 48 hrs by Alexa Fluor 488 Annexin/propidium iodide staining-based flow cytometry; type: functional, cell-based
A549 [19] = assay: Cell cycle arrest in human A549 cells assessed as accumulation at G2/M phase after 48 hrs by propidium iodide staining-based flow cytometry; type: functional

Histone deacetylase 2, sequence (Q92769 whole entry): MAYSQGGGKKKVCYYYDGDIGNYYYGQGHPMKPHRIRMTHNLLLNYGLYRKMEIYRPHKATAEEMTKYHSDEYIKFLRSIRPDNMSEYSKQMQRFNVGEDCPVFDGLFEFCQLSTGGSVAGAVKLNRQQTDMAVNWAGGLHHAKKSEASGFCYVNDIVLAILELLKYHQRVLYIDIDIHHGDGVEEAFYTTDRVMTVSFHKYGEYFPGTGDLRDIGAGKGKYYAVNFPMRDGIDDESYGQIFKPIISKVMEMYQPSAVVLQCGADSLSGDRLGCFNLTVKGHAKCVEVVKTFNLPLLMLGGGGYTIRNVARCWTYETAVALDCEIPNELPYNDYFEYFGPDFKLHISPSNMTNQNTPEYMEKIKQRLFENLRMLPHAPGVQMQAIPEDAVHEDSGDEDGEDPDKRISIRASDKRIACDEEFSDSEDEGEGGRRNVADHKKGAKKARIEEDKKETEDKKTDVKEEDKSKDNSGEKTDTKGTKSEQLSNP
Histone deacetylase 1, sequence (Q13547 whole entry): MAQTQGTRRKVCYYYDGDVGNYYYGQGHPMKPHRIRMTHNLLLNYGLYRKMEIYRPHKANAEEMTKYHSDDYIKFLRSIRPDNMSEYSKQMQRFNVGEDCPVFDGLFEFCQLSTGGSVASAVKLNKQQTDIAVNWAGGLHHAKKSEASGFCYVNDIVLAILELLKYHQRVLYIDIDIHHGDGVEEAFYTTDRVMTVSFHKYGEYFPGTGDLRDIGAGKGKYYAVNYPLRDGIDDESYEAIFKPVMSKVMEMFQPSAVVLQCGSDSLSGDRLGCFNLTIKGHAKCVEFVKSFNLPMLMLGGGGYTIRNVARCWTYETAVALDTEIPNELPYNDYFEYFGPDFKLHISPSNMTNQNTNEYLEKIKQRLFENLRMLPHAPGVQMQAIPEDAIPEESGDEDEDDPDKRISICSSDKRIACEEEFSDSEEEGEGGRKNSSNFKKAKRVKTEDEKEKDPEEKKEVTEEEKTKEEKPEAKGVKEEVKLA

Structure (SMILES)	IC50 (A549 [1]) [µM]	IC50 (MGC-803) [µM]	IC50 (HepG2) [µM]	IC50 (HCT-116) [µM]	further results
Nc1ccccc1NC(=O)c1ccc(COc2ccc(Cl)cc2)cc1	> 32	> 32	> 32	17.3	
Nc1ccccc1NC(=O)c1ccc(CN2CCc3cc(Br)ccc32)cc1		7.39	10.7		
O=C(NO)c1ccc(COc2ccccc2)cc1	28		29.6		
O=C(/C=C/c1ccc(CN2CCc3ccccc32)cc1)NO	5.48		14.9		
Nc1ccc(F)cc1NC(=O)c1ccc(CNC(=O)/C=C/c2cccnc2)cc1	11	6.44	22.7	2.28	viability at 4 µM (A549 [2]): 81.6%; Activity (A549 [3]): 10.55%; Activity (A549 [4]): 6.27%; Activity (A549 [5]): 1.52%; viability at 8 µM (A549 [6]): 75.5%; Activity (A549 [7]): 13.48%; Activity (A549 [8]): 8.94%; Activity (A549 [9]): 2.1%; Activity (A549 [10]): 80.14%; Activity (A549 [11]): 10.02%; Activity (A549 [12]): 9.84%; Activity (A549 [13]): 85.67%; Activity (A549 [14]): 7.87%; Activity (A549 [15]): 6.46%
CC(C)c1ccc(OCc2ccc(C(=O)Nc3ccccc3N)cc2)cc1	7.46	> 32	> 32	4.57	
Nc1ccccc1NC(=O)c1ccc(COc2ccc(F)cc2)cc1	5.37	4.97	3.84	3.86	IC50 (Histone deacetylase 1): 1.27 µM; IC50 (Histone deacetylase 2): 0.57 µM; IC50 [16]: > 40 µM; inhibition (A549 [17]): Dose-dependent effect; viability at 4 µM (A549 [2]): 70.9%; Activity (A549 [3]): 14.37%; Activity (A549 [4]): 10.93%; Activity (A549 [5]): 3.74%; viability at 8 µM (A549 [6]): 29.7%; Activity (A549 [7]): 35.52%; Activity (A549 [8]): 28.88%; Activity (A549 [9]): 6.34%; Activity (A549 [18]): Dose-dependent effect; Activity (A549 [10]): 84.93%; Activity (A549 [11]): 6.1%; Activity (A549 [12]): 8.97%; Activity (A549 [13]): 54.03%; Activity (A549 [14]): 8.23%; Activity (A549 [15]): 37.74%; Activity (A549 [19]): Dose-dependent effect
COc1ccc(OCc2ccc(C(=O)Nc3ccccc3N)cc2)cc1	5.53	3.48	4.2	2.02	inhibition (A549 [17]): Dose-dependent effect
Nc1cc(F)ccc1NC(=O)c1ccc(COc2ccccc2)cc1	8.34	6.02	7.02		
C/C(=N\O)c1ccc(OCc2ccc(C(=O)NO)cc2)cc1	8.93		7.77		
Cc1ccc(OCc2ccc(C(=O)Nc3ccccc3N)cc2)cc1	5.43	6.53	6.59	4.86	
Nc1ccccc1NC(=O)/C=C/c1ccc(CN2CCc3ccccc3C2)cc1		14.2	13.5		
CC(=O)Nc1ccc(C(=O)Nc2ccccc2N)cc1 [TACEDINALINE]	20.1	11.6	18.5	7.71	viability at 4 µM (A549 [2]): 85.7%; Activity (A549 [3]): 6.96%; Activity (A549 [4]): 4.39%; Activity (A549 [5]): 2.91%; viability at 8 µM (A549 [6]): 85.6%; Activity (A549 [7]): 7.82%; Activity (A549 [8]): 4.76%; Activity (A549 [9]): 1.8%; Activity (A549 [10]): 81.59%; Activity (A549 [11]): 9.31%; Activity (A549 [12]): 9.1%; Activity (A549 [13]): 89.32%; Activity (A549 [14]): 4.66%; Activity (A549 [15]): 6.02%
Nc1ccccc1NC(=O)/C=C/c1ccc(CN2CCc3ccccc32)cc1	13.4	> 32	> 32		
O=C(/C=C/c1ccc(COc2ccccc2)cc1)NO	5.77		8.4		
Nc1cnccc1NC(=O)/C=C/c1ccc(COc2ccccc2)cc1	> 32	> 32	> 32		
Nc1ccccc1NC(=O)c1ccc(COc2ccccc2)cc1	6.76	5.67	6.7	4.89	
Nc1ccccc1NC(=O)/C=C/c1ccc(COc2ccccc2)cc1	> 32	> 32	> 32		
CCCc1ccc(OCc2ccc(C(=O)Nc3ccccc3N)cc2)cc1	5.21	4.42	4.75	3.23	
Nc1ccccc1NC(=O)c1ccc(COc2ccc(Br)cc2)cc1	24.4	> 32	> 32	> 32	
CCc1ccc(OCc2ccc(C(=O)Nc3ccccc3N)cc2)cc1	6.42	5.88	6.96	4.83	
Nc1ccccc1NC(=O)c1ccc(COc2ccc([N+](=O)[O-])cc2)cc1	> 32	> 32	> 32	> 32	

From ChEMBL document CHEMBL4020706, “Design, synthesis and biological evaluation of novel hydroxamates and 2-aminobenzamides as potent histone deacetylase inhibitors and antitumor agents” (Eur J Med Chem, 2017)
